Assay results taken from US20090076021A1, “THERAPEUTIC COMBINATIONS AND METHODS FOR CARDIOVASCULAR IMPROVEMENT AND TREATING CARDIOVASCULAR DISEASE” (priority 2006, published 2009).

System: Hypothyroid rats
Assay: Cardiac performance (Millar direct catheter system) in PTU-fed hypothyroid rats after 4 days of treatment
Format: in vivo, Male S.D. rats
Method: Male S.D. rats (7 wks old) were rendered hypothyroid by being fed PTU diet (n 48; iodine deficient, 0.15% propylthiouracil) or normal chow (n=8) for 2 weeks. PTU fed rats were then separated into weight-matched groups the day prior to inception of the study, and treated for 4 days with vehicle (0.05 mL/100 g BW i.p.; 20% Cremophor EL; 20% ethanol; 60% H2O) or T3 (3 μg/kg) and scriptaid (1.5, 15 mg/kg) or its vehicle (100% DMSO; 0.04 mL/100 g BW i.p.). Because of differential pharmacodynamics of T3 and scriptaid, each animal received T3 or its vehicle at least 3 hours prior to receiving scriptaid or its vehicle. Following 4 days of treatment, core temperature, systemic hemodynamics, and cardiac performance data were collected under isoflurane anesthesia using the Millar direct catheter system no less two hours following scriptaid administration. At the conclusion of the experiment the animals were sacrificed, and blood and tissues collected for morphological and biochemical analysis. Hypothyroid rats have impaired systolic and diastolic cardiac performance relative to euthyroid control rats, while scriptaid alone exerted no effects on either systolic or diastolic cardiac performance.

[1] = scriptaid (1.5, 15 mg/kg i.p.) coadministered with T3 (3 μg/kg), hypothyroid rats, compared with T3 alone

With `N[C@@H](Cc1cc(I)c(Oc2ccc(O)c(I)c2)c(I)c1)C(=O)O` [T3, triiodothyronine] the “maximal positive and negative dP/dt (indices of systolic and diastolic performance)” value (T3 3 μg/kg, hypothyroid (PTU diet) rats, FIG. 1) was “increased” and the “tau (an index of myocardial relaxation)” value (T3 3 μg/kg, hypothyroid (PTU diet) rats, FIG. 2) was “improved”.
With `O=C(CCCCCN1C(=O)c2cccc3cccc(c23)C1=O)NO` [scriptaid, 6-(1,3-Dioxo-1H,3H-benzo[de]isoquinolin-2-yl)-hexanoic acid hydroxyamide] the “maximal +/−dP/dt” value [1] was “significantly enhanced the effects of T3 treatment”, the tau [1] was “significantly enhanced the effects of T3 treatment” and the “systolic or diastolic cardiac performance” value (scriptaid alone (1.5, 15 mg/kg i.p.), hypothyroid (PTU diet) rats, isoflurane anesthesia) was “no effects”.
